The experiment has as its system BolI. In words: steady-state kinetics, CoA production. The conditions noted are these: co-substrate SAM presumed; details in supplement. The experiment is classed as biochemical, Bradyrhizobium oligotrophicum.

In the case of `CC(C)(COP(=O)(O)OP(=O)(O)OC[C@H]1O[C@@H](n2cnc3c(N)ncnc32)[C@H](O)[C@@H]1OP(=O)(O)O)[C@@H](O)C(=O)NCCC(=O)NCCSC(=O)/C=C/c1ccccc1` [cinnamoyl-CoA], the Km turned out to be 3 µM.

As usually defined, the Km is the concentration of substrate that gives half-maximal velocity.

The record behind these values is article PMC8040520 (ACS chemical biology, 2020).
